Assay results taken from patent US20240299412A1, “DRUG FORMULATIONS OF 4-(3,3-DIFLUORO-2,2-DIMETHYL-PROPANOYL) -3,5-DIHYDRO-2H-PYRIDO[3,4-f][1,4]OXAZEPINE-9-CARBONITRILE” (Genzyme Corporation, priority 2023, published 2024).
≈ marks a conversion by molar mass, not a printed value.

What was measured:
Format in all cases: physicochemical
[1] = Dynamic vapor sorption (DVS)
Experimental: DVS. DVS was measured via a SMS (Surface Measurement Systems) DVS Intrinsic. The relative humidity at 25° C. were calibrated against deliquescence point of LiCl, Mg(NO3)2 and KCl.
(onset temperature). Considering the low TGA weight loss and single sharp DSC endotherm, Form A was postulated to be an anhydrate. […] However Form A has been prepared with much lower volatile content (0.1% or lower).

[2] = Physical and chemical stability of Form A (solid storage)
Experimental: To evaluate the physical and chemical stability, Compound (1) Form A was stored in 3 conditions (40° C./75% RH; 25° C./60% RH; and 60° C.) for one and four weeks.

[3] = Kinetic solubility in bio-relevant media and H2O; conditions: for Final Form: residual solid
Experimental: Solids were suspended in FaSSIF, FeSSIF, SGF and H2O with target conc. of ˜10 mg/mL. The suspensions were agitated on a rolling incubator at 25 rpm (in the incubator set at 37° C.) for 1, 4 and 24 hrs. At each time point, 1 mL of the suspension was pipetted out for centrifugation at 15000 rpm (3 min) and filtration through 0.45 μm membrane to obtain supernatant for HPLC solubility and pH tests, the residual solids were analyzed by XRPD.

[4] = 40° C./75% RH, 25° C./60% RH, 60° C., one and four weeks

SMILES: CC(C)(C(=O)N1CCOc2c(C#N)cncc2C1)C(F)F [Form A, 4-(3,3-difluoro-2,2-dimethyl-propanoyl)-3,5-dihydro-2H-pyrido[3,4-f][1,4]oxazepine-9-carbonitrile]
- water uptake (DVS) ([1]; 25 C.°/80% RH): 0.024%
- form change after DVS test (XRPD) ([1]; after DVS test): no form change
- API (RRT 1.00) % Area ([2]; 1 week, 25° C./60% RH): 99.92 % Area
- Description ([2]; 1 week, 25° C./60% RH): White powder
- Final Form ([2]; 1 week, 25° C./60% RH): Form A
- Imp.1 (RRT 0.68) % Area ([2]; 1 week, 25° C./60% RH): 0.08 % Area
- Purity VS. initial (%) ([2]; 1 week, 25° C./60% RH): 100.0%
- API (RRT 1.00) % Area ([2]; 1 week, 40° C./75% RH): 99.89 % Area
- Description ([2]; 1 week, 40° C./75% RH): White powder
- Final Form ([2]; 1 week, 40° C./75% RH): Form A
- Imp.1 (RRT 0.68) % Area ([2]; 1 week, 40° C./75% RH): 0.11 % Area
- Purity VS. initial (%) ([2]; 1 week, 40° C./75% RH): 100.0%
- API (RRT 1.00) % Area ([2]; 1 week, 60° C.): 99.90 % Area
- Description ([2]; 1 week, 60° C.): White powder
- Final Form ([2]; 1 week, 60° C.): Form A
- Imp.1 (RRT 0.68) % Area ([2]; 1 week, 60° C.): 0.10 % Area
- Purity VS. initial (%) ([2]; 1 week, 60° C.): 100.0%
- API (RRT 1.00) % Area ([2]; 4 weeks, 25° C./60% RH): 99.90 % Area
- Description ([2]; 4 weeks, 25° C./60% RH): White powder
- Final Form ([2]; 4 weeks, 25° C./60% RH): Form A
- Imp.1 (RRT 0.68) % Area ([2]; 4 weeks, 25° C./60% RH): 0.10 % Area
- Purity VS. initial (%) ([2]; 4 weeks, 25° C./60% RH): 100.0%
- API (RRT 1.00) % Area ([2]; 4 weeks, 40° C./75% RH): 99.90 % Area
- Description ([2]; 4 weeks, 40° C./75% RH): White powder
- Final Form ([2]; 4 weeks, 40° C./75% RH): Form A
- Imp.1 (RRT 0.68) % Area ([2]; 4 weeks, 40° C./75% RH): 0.10 % Area
- Purity VS. initial (%) ([2]; 4 weeks, 40° C./75% RH): 100.0%
- API (RRT 1.00) % Area ([2]; 4 weeks, 60° C.): 99.90 % Area
- Description ([2]; 4 weeks, 60° C.): White powder
- Final Form ([2]; 4 weeks, 60° C.): Form A
- Imp.1 (RRT 0.68) % Area ([2]; 4 weeks, 60° C.): 0.10 % Area
- Purity VS. initial (%) ([2]; 4 weeks, 60° C.): 100.0%
- HPLC purity change on storage [2, 4]: no obvious HPLC purity change
- form change on storage (XRPD) [2, 4]: no form change
- API (RRT 1.00) % Area ([2]; Initial): 99.89 % Area
- Imp.1 (RRT 0.68) % Area ([2]; Initial): 0.11 % Area
- form change after kinetic solubility test ([3]; bio-relevant media or H2O): No form change
- Final Form ([3]; FaSSIF (pH 6.5), 37° C., 1 hr): Form A
- Final Form ([3]; FaSSIF (pH 6.5), 37° C., 4 hr): Form A
- Final Form ([3]; FaSSIF (pH 6.5), 37° C., 24 hr): Form A
- Final Form ([3]; FeSSIF (pH 5.0), 37° C., 1 hr): Form A
- Final Form ([3]; FeSSIF (pH 5.0), 37° C., 4 hr): Form A
- Final Form ([3]; FeSSIF (pH 5.0), 37° C., 24 hr): Form A
- Final Form ([3]; H2O (pH 6.5), 37° C., 1 hr): Form A
- Final Form ([3]; H2O (pH 6.5), 37° C., 4 hr): Form A
- Final Form ([3]; H2O (pH 6.5), 37° C., 24 hr): Form A
- Final Form ([3]; SGF (pH 1.8), 37° C., 1 hr): Form A
- Final Form ([3]; SGF (pH 1.8), 37° C., 4 hr): Form A
- Final Form ([3]; SGF (pH 1.8), 37° C., 24 hr): Form A
- solubility at 1 h ([3]; simulated gastric fluid, thermodynamic from solid, SGF (pH 1.8), 37° C., 1 hr, Turbid, final pH 1.8): 2300 µg/mL (≈ 7.79 mM)
- solubility at 4 h ([3]; simulated gastric fluid, thermodynamic from solid, SGF (pH 1.8), 37° C., 4 hr, Turbid, final pH 2.3): 2400 µg/mL (≈ 8.13 mM)
- solubility at 24 h ([3]; simulated gastric fluid, thermodynamic from solid, SGF (pH 1.8), 37° C., 24 hr, Turbid, final pH 2.2): 2500 µg/mL (≈ 8.47 mM)
- solubility at 1 h ([3]; thermodynamic from solid, FaSSIF (pH 6.5), 37° C., 1 hr, Turbid, final pH 6.4): 1100 µg/mL (≈ 3.73 mM)
- solubility at 4 h ([3]; thermodynamic from solid, FaSSIF (pH 6.5), 37° C., 4 hr, Turbid, final pH 6.6): 1100 µg/mL (≈ 3.73 mM)
